Results as given in patent publication US20150005236A1, “USE OF BETA-NERVE GROWTH FACTOR FOR INDUCING OVULATION IN MAMMALS” (INSTITUT NATIONAL DE LA RECHERCHE AGRONOMIQUE, priority 2012, published 2015).
Values joined by “and” are separate entries in the source; they are usually repeats but may differ in a detail not shown here. Equal values may be shown once. Marks after values point to notes of the source that are not given here.

What was measured:
female rabbits = assay: Induction of ovulation in female rabbits; assay type: in vivo, rabbit; conditions: for Ovulation (%): ovulation frequency, i.m. injection
Procedure: A herd of 83 female rabbits of proven fertility was used in this experiment.
The female rabbits were synchronized by an injection of eGG 48 hours before insemination. Then they were inseminated with a mixture of semen from several males. The same mixture was used for all females.
The female rabbits were killed 48 hours after insemination. The ovaries were collected to proceed to counting the corpora lutea, pre-ovulatory follicles of diameter higher than 1 mm and atretic follicles, and to identify potential pseudopregnant females. The oviducts were infused in order to count oocytes and embryos and to evaluate the developmental stage of the latter (number of blastomeres of the embryo).
The results were analysed with the software SAS using a fixed-effects variance analysis, taking into account the fixed effect of the treatment (4 levels: GnRH, β-NGF, PS and saline).

female alpacas [1] = assay: Induction of ovulation in alpacas (transrectal ultrasonography, plasma progesterone RIA); assay type: in vivo, alpaca; conditions: for CL diameter: corpus luteum on day 8 following i.m. treatment; for CL diameter / Progesterone conc.: mean ± sem; for corpus lutea detected, % of alpacas: day 8 following treatment; for corpus lutea detected, % of alpacas / dominant follicle absent, % of female alpacas: n=5/group; for Progesterone conc.: plasma, day 8 following i.m. treatment, animals that did not ovulate excluded; for dominant follicle absent, % of female alpacas: ultrasonography 28-30 h following treatment
Procedure: The emergence of dominant follicles was synchronised with the 0.8 ml (200 μg) prostaglandin F2α (Estrumate®, Intervet) i.m. followed by 1 ml (4 μg) of Buserelin (Receptal®, Intervet) i.m. 24 h later, then luteolysis was induced 11 days after induced ovulation with 0.8 ml Estrumate®.
To determine the presence of a dominant follicle, females were restrained in sternal recumbency and examined by transrectal ultrasonography using an Aloka SSD-500 scanner with 7.5 MHz linear array transducer (Aloka Co., Japan). The ovaries of […] were scanned. Females with a newly emerged dominant follicle of 6-10 mm in diameter were randomly assigned to receive 1 of 4 treatments: (1) 1 ml 0.9% saline in, (n 5), (2) 1 ml (4 μg) Receptal® (Intervet) i.m (n=5), (3) 2 ml alpaca's seminal plasma i.m. collected as described above for Experiment ˜1 (n=5), (4) 1 mg recombinant active human β-NGF protein (Sino Biological, Japan) Lm. (n=5).
Animals were examined by transrectal ultrasonography 28-30 h following treatments to detect ovulation. Ovulation was defined as the absence of the dominant follicle that was observed during the previous scan at the time of treatment. Ultrasonography was also repeated 8 days following treatment, to confirm ovulation and determine the size of the corpus luteum.
(§1) Female alpacas were cannulated and jugular venous blood samples (5 ml) were collected for detection of luteinising hormone immediately before treatment, every 30 min for 4 h, then every 1 h for 4 h and finally at 12 h post-treatment. Jugular venous blood samples (5 ml) were also collected on day 8 at the time of ultrasonography for detection of plasma progesterone. Samples were placed in heparinised tubes, centrifuged at 2000×g for 10 min, the plasma decanted and stored at −20° C. until analysis.
(§2) Plasma LH concentration were determined using a RIA. Plasma progesterone concentrations were determined using a commercial double antibody RIA kit (Coat-a-Count).
International, Hemel Hempstead, UK) with post-hoc comparisons using the least significant difference (LSD) test where appropriate. Far all analyses P<0.05 was considered significant.
In this experiment, female alpacas (n 5/group) were administered i.m. with (1) 1 ml 0.9% saline, (2) 1 ml of the GnRH agonist Receptal® (3) 2 ml alpaca seminal plasma, or (4) 1 mg human β-NGF. Ovulation was detected by transrectal ultrasonography […] following treatment and confirmed by plasma progesterone concentrations.

female alpacas [2] = assay: LH concentration in peripheral blood of female alpacas (RIA); assay type: in vivo, alpaca; conditions: for LH concentration in peripheral blood: 12 hours after i.m. injection, versus saline; for peak of LH, time after injection: i.m. injection, peripheral blood
Procedure: as §1, §2
The evolution of the concentration of LH in peripheral blood was assessed for 12 hours after the injections.

mouse GnRH neurons = assay: Calcium imaging of primary culture of GnRH neurons; assay type: cell-based
Source text: A model of primary culture of GnRH neurons has been developed from explants of olfactory placodes of mouse embryos (Constantin et al., 2009). This model has three stages of in vitro development: from 1 to 3 days, intra-explant migration, corresponding to an in vivo intranasal migration; from 3 to […] days, out-of explant migration, corresponding to an in vivo intracerebral development; from 7 to 15 days, occurrence of the pulsatile secretion, corresponding to neuronal and network maturation.
This experiment was carried out between 7 and 15 days of in vitro development corresponding to a stage of mature GnRH neurons having a pulsatile GnRH secretion.
Embryos were obtained from timed pregnant animals. Nasal pits of embryonic d 11.5 staged Swiss mice were isolated under aseptic conditions and refrigerated for 1 h in Gey's balanced salt solution (Eurobio, Les Ulis, France) enriched with glucose (Sigma-Aldrich Corp., St. Louis, Mo.). Nasal explants were adhered onto coverslips by a chicken plasma (local source)/thrombin (Sigma-Aldrich) clot. […]
These variations were measured by “time lapse” imaging in the primary culture of GnRH neurons. A quantitative analysis was carried out for single neurons but also overall for a group of neurons constituting part of the network. […]
Calcium Green-1 was visualized using an inverted microscope (DM-IRB; Leica. Microsystems GmbH, Wetzlar, Germany), through a ×20 fluorescence objective, and acquired using a cooled intensified charge-coupled device camera (CoolSNAP fx; Rapper Instruments, Photometrics, Tucson, Ariz.). Experiments were piloted by Metafluor (Molecular Devices, Downingtown, Pa.), controlling the shutter and the acquisition (every 20 sec for 3 h), Excitation wavelengths were provided through a medium-width excitation bandpass filter at 465-495 nm, and emission was monitored through a 40-nm bandpass centered on 535 nm. Fluctuations in [Ca2+]i were analyzed a posteriori with Metafluor software. […] Calcium Green-1 fluorescence intensity was plotted and analyzed with Excel (Microsoft Corp., Redmond, Wash.). […]

[3] = system: glial cells associated with GnRH neurons; assay: Immunohistochemistry of the relations between GnRH neurons and glial cells; assay type: cell-based, mouse; conditions: 20 min application at 75 nM, then K+ stimulation; not in control conditions
Procedure: An immunohistochemical approach was used to characterize the cells present in the culture, using anti-GnRH antibody for the GnRH neurons, anti-S100b antibody for the glial cells and anti-P75 antibody (P75 is a NGF-specific receptor). The analysis was carried out by confocale microscopy.
Nasal explants were fixed in 4% formaldehyde [45-60 min, rinsed in PBS (3×10 min)], blocked (1 h, 10% normal goat serum, 0.3% Triton X-100, and 0.1% sodium azide), rinsed in PBS (3×8 min), and incubated overnight in anti-GnRH-1 (1:3000, SW-1). Antibodies were diluted in PBS containing 10% normal goat serum, 0.3% Triton X-100, and 0.1% sodium azide. The next day, the explants were rinsed in PBS (3×8 min), incubated in secondary antibody ant rabbit Alexa 546 (1:500, 1 h; Molecular Probes, Inc., Eugene Oreg.) and rinsed in PBS (4×8 min). Explants incubated with fluorescent dies were mounted with Vector Shield (Vector Laboratories).
The relations between GnRH neurons and glial cells have been analyzed by immunohistochemistry after 20 min of recording in calcic imaging, for the control and after 20 min of application of β-NGF at 75 nM in the culture medium, and after K^+ stimulation. The glial cells retract after K^+ stimulation in the presence of β-NGF, but not in control conditions.

[4] = 48 hours after insemination, estimated mean values

Compound | Collected embryos (female rabbits; [4]) | Corpora lutea (number by injected female rabbit) (female rabbits; [4]) | Haemorrhagic follicles (female rabbits; [4]) | Ovulation (%) (female rabbits) | CL diameter (female alpacas [1]) | corpus lutea detected, % of alpacas (female alpacas [1]) [%] | Progesterone conc. (female alpacas [1]) | dominant follicle absent, % of female alpacas (female alpacas [1]) [%] | time to LH surge after treatment (female alpacas [2]; 1 mg i.m.) [h] | LH concentration in peripheral blood (female alpacas [2]) | peak of LH, time after injection (female alpacas [2]) [h] | percent of synchronization events involving more than 70% of the recorded GnRH neurons (mouse GnRH neurons; 75 nM in the culture medium) | synchronization of calcic events between GnRH neurons (mouse GnRH neurons; 20 min after application at 75 nM) | fold decrease in average time between two calcium events (mouse GnRH neurons; 20 min after application at 75 nM in the culture medium, versus control (about 15 s)) | glial cells after K+ stimulation [3]
GnRH: 0.2 ml of Fertagyl® containing 20 μg of GnRH (Gonadotrophine Releasing Hormone), positive control (QHWSYGLRPG; Gonadoliberin-1; UniProt P01148 24-33, looked up) | 12.09^a | 13.82^a | 1.36^a | 100% and 100^a % |  |  |  |  |  |  |  |  |  |  | 
beta-Nerve Growth Factor [β-NGF] |  |  |  | 25% and 25.0^b % | 10.3 ± 1.03^a mm | 80 | 3.28 ± 0.681^b ng/ml | 80 | ≤ 8 | significant increase | 3 | increase | increased | 3 | retract
CCNC(=O)[C@@H]1CCCN1C(=O)[C@H](CCCNC(=N)N)NC(=O)[C@H](CC(C)C)NC(=O)[C@@H](COC(C)(C)C)NC(=O)[C@H](Cc1ccc(O)cc1)NC(=O)[C@H](CO)NC(=O)[C@H](Cc1c[nH]c2ccccc12)NC(=O)[C@H](Cc1cnc[nH]1)NC(=O)[C@@H]1CCC(=O)N1 [Receptal, Buserelin, reference compound] |  |  |  |  | 9.3 ± 1.49^a mm | 80 | 4.01 ± 0.897^b ng/ml | 80 |  | significant increase | 3 |  |  |  | 
